From ChEMBL document CHEMBL1201861, “Genomics of Drug Sensitity in Cancer screening data, Wellcome Trust Sanger Institute”

Assays:
Assay in all cases: cells
H4 = type: functional, cell-based; conditions: Homo sapiens
Description: SANGER: Inhibition of human H4 cell growth in a cell viability assay.

SF-268 = type: functional, cell-based, Homo sapiens; conditions: Homo sapiens, SF-268;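 also: growth inhibition of SF-268 cells determined with a cell viability assay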
Description: SANGER: Inhibition of human SF268 cell growth in a cell viability assay.

SKG-IIIa = type: functional, cell-based, Homo sapiens; conditions: Homo sapiens, SKG-IIIa;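 also: cell growth inhibition, read out with a cell viability assay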
Description: SANGER: Inhibition of human SKG-IIIa cell growth in a cell viability assay.

HCC2157 = type: functional, cell-based; conditions: Homo sapiens;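 also: growth inhibition of the cancer cell line, read out as cell viability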
Description: SANGER: Inhibition of human HCC2157 cell growth in a cell viability assay.

COLO-792 = type: functional, cell-based, Homo sapiens; conditions: Homo sapiens, COLO-792
Description: SANGER: Inhibition of human COLO-792 cell growth in a cell viability assay.

NCI-H2228 = type: functional, cell-based, Homo sapiens; conditions: Homo sapiens, NCI-H2228;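 also: growth inhibition of human NCI-H2228 cells, read out by a cell viability assay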
Description: SANGER: Inhibition of human NCI-H2228 cell growth in a cell viability assay.

KYSE-140 = type: functional, cell-based, Homo sapiens; conditions: Homo sapiens, KYSE-140;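 also: cell viability assay measuring growth inhibition in human KYSE-140 cells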
Description: SANGER: Inhibition of human KYSE-140 cell growth in a cell viability assay.

BFTC-905 = type: functional, cell-based, Homo sapiens; conditions: Homo sapiens, BFTC-905
Description: SANGER: Inhibition of human BFTC-905 cell growth in a cell viability assay.

KM-H2 = type: functional, cell-based; conditions: Homo sapiens;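 also: growth inhibition of KM-H2 cells, read out by a cell viability assay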
Description: SANGER: Inhibition of human KM-H2 cell growth in a cell viability assay.

RT-112 = type: functional, cell-based, Homo sapiens; conditions: Homo sapiens, RT-112
Description: SANGER: Inhibition of human RT-112 cell growth in a cell viability assay.

CAPAN-1 = type: functional, cell-based, Homo sapiens; conditions: Homo sapiens, CAPAN-1;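 also: growth suppression of CAPAN-1 cells, read out by a cell viability assay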
Description: SANGER: Inhibition of human CAPAN-1 cell growth in a cell viability assay.

LCLC-103H cell line = type: functional, cell-based, Homo sapiens; conditions: Homo sapiens, LCLC-103H
Description: SANGER: Inhibition of human LCLC-103H cell growth in a cell viability assay.

DSH1 = type: functional, cell-based, Homo sapiens; conditions: Homo sapiens, DSH1;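 also: growth inhibition of human DSH1 cells, measured with a cell viability readout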
Description: SANGER: Inhibition of human DSH1 cell growth in a cell viability assay.

PANC-08-13 = type: functional, cell-based, Homo sapiens; conditions: Homo sapiens, PANC-08-13;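 also: cell growth inhibition, measured with a cell viability assay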
Description: SANGER: Inhibition of human PANC-08-13 cell growth in a cell viability assay.

Hs-578T = type: functional, cell-based, Homo sapiens; conditions: Homo sapiens, Hs-578T
Description: SANGER: Inhibition of human Hs-578-T cell growth in a cell viability assay.

SW48 = type: functional, cell-based, Homo sapiens; conditions: Homo sapiens, SW48;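 also: growth inhibition of SW48 cells, read out with a cell viability assay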
Description: SANGER: Inhibition of human SW48 cell growth in a cell viability assay.

BXPC-3 = type: functional, cell-based, Homo sapiens; conditions: Homo sapiens, BXPC-3;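 also: growth inhibition of human BxPC-3 cells, read out by a cell viability assay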
Description: SANGER: Inhibition of human BxPC-3 cell growth in a cell viability assay.

NOMO-1 = type: functional, cell-based; conditions: Homo sapiens;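 also: growth inhibition of human NOMO-1 cells measured by a cell viability assay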
Description: SANGER: Inhibition of human NOMO-1 cell growth in a cell viability assay.

OVCAR-8 = type: functional, cell-based, Homo sapiens; conditions: Homo sapiens, OVCAR-8;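 also: growth inhibition of human OVCAR-8 cells, read out by a cell viability assay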
Description: SANGER: Inhibition of human OVCAR-8 cell growth in a cell viability assay.

RCC10RGB = type: functional, cell-based, Homo sapiens; conditions: Homo sapiens, RCC10RGB;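 also: growth inhibition of human RCC10RGB cells, read out by a cell viability assay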
Description: SANGER: Inhibition of human RCC10RGB cell growth in a cell viability assay.

AU565 = type: functional, cell-based, Homo sapiens; conditions: Homo sapiens, AU565;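 also: cell viability assay measuring growth inhibition of human AU565 cells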
Description: SANGER: Inhibition of human AU565 cell growth in a cell viability assay.

HOP-62 = type: functional, cell-based, Homo sapiens; conditions: Homo sapiens, HOP-62;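 also: cell growth inhibition determined with a viability assay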
Description: SANGER: Inhibition of human HOP-62 cell growth in a cell viability assay.

KYSE-150 cell line = type: functional, cell-based, Homo sapiens; conditions: Homo sapiens, KYSE-150;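 also: growth inhibition of human KYSE-150 cells, read out with a cell viability assay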
Description: SANGER: Inhibition of human KYSE-150 cell growth in a cell viability assay.

CTB-1 = type: functional, cell-based; conditions: Homo sapiens
Description: SANGER: Inhibition of human CTB-1 cell growth in a cell viability assay.

JAR = type: functional, cell-based, Homo sapiens; conditions: Homo sapiens, JAR;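 also: growth inhibition of human JAR cells determined with a cell viability assay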
Description: SANGER: Inhibition of human JAR cell growth in a cell viability assay.

SK-MEL-28 = type: functional, cell-based; conditions: Homo sapiens;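 also: growth inhibition of human SK-MEL-28 cells, read out with a cell viability assay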
Description: SANGER: Inhibition of human SK-MEL-28 cell growth in a cell viability assay.

NCI-H2030 = type: functional, cell-based, Homo sapiens; conditions: Homo sapiens, NCI-H2030;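 also: growth inhibition of human NCI-H2030 cells, read out by a cell viability assay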
Description: SANGER: Inhibition of human NCI-H2030 cell growth in a cell viability assay.

KYSE-450 = type: functional, cell-based; conditions: Homo sapiens;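 also: cell growth inhibition measured by a viability assay in human KYSE-450 cells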
Description: SANGER: Inhibition of human KYSE-450 cell growth in a cell viability assay.

HuO-3N1 = type: functional, cell-based, Homo sapiens; conditions: Homo sapiens, HuO-3N1;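 also: cell viability readout used to measure how strongly compounds suppress proliferation of human HuO-3N1 cells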
Description: SANGER: Inhibition of human HuO-3N1 cell growth in a cell viability assay.

OVCAR-4 = type: functional, cell-based, Homo sapiens; conditions: Homo sapiens, OVCAR-4;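 also: growth inhibition of human OVCAR-4 cells, measured with a cell viability assay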
Description: SANGER: Inhibition of human OVCAR-4 cell growth in a cell viability assay.

ES4 = type: functional, cell-based, Homo sapiens; conditions: Homo sapiens, ES4;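 also: growth inhibition of human ES4 cells, read out by a cell viability assay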
Description: SANGER: Inhibition of human ES4 cell growth in a cell viability assay.

AM-38 = type: functional, cell-based, Homo sapiens; conditions: Homo sapiens, AM-38;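 also: growth inhibition of AM-38 cells of human origin, read out by a cell viability assay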
Description: SANGER: Inhibition of human AM-38 cell growth in a cell viability assay.

NOS-1 = type: functional, cell-based, Homo sapiens; conditions: Homo sapiens, NOS-1;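 also: growth inhibition of the human NOS-1 cell line, read out with a cell viability assay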
Description: SANGER: Inhibition of human NOS-1 cell growth in a cell viability assay.

DOK = type: functional, cell-based, Homo sapiens; conditions: Homo sapiens, DOK;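 also: cell viability assay read-out, values reflect inhibition of cell growth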
Description: SANGER: Inhibition of human DOK cell growth in a cell viability assay.

DMS-114 = type: functional, cell-based, Homo sapiens; conditions: Homo sapiens, DMS-114
ES3 = type: functional, cell-based, Homo sapiens; conditions: Homo sapiens, ES3;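 also: growth inhibition of ES3 cells, read out with a cell viability assay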
Description: SANGER: Inhibition of human ES3 cell growth in a cell viability assay.

NCI-H2170 = type: functional, cell-based, Homo sapiens; conditions: Homo sapiens, NCI-H2170;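 also: cell viability assay measuring growth inhibition of human NCI-H2170 cancer cells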
Description: SANGER: Inhibition of human NCI-H2170 cell growth in a cell viability assay.

MFH-ino = type: functional, cell-based; conditions: Homo sapiens;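 also: growth inhibition of human MFH-ino cells, read out by a cell viability assay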
Description: SANGER: Inhibition of human MFH-ino cell growth in a cell viability assay.

LS-123 = type: functional, cell-based, Homo sapiens; conditions: Homo sapiens, LS-123
Description: SANGER: Inhibition of human LS-123 cell growth in a cell viability assay.

HCC1419 = type: functional, cell-based, Homo sapiens; conditions: Homo sapiens, HCC1419;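 also: growth inhibition of human HCC1419 cells, read out as cell viability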
Description: SANGER: Inhibition of human HCC1419 cell growth in a cell viability assay.

Panc1005 = type: functional, cell-based, Homo sapiens; conditions: Homo sapiens, Panc1005;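 also: growth inhibition of human PANC-10-05 cells, measured by a cell viability assay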
Description: SANGER: Inhibition of human PANC-10-05 cell growth in a cell viability assay.

HT1197 = type: functional, cell-based, Homo sapiens, HT-1197; conditions: Homo sapiens, HT1197
Description: SANGER: Inhibition of human HT-1197 cell growth in a cell viability assay.

NCI-H1793 = type: functional, cell-based, Homo sapiens; conditions: Homo sapiens, NCI-H1793;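 also: cell growth inhibition, read out by a cell viability assay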
Description: SANGER: Inhibition of human NCI-H1793 cell growth in a cell viability assay.

SK-MEL-2 = type: functional, cell-based, Homo sapiens; conditions: Homo sapiens, SK-MEL-2
Description: SANGER: Inhibition of human SK-MEL-2 cell growth in a cell viability assay.

COLO-680N = type: functional, cell-based, Homo sapiens; conditions: Homo sapiens, COLO-680N;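 also: cell viability assay used to measure inhibition of COLO-680N cell growth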
Description: SANGER: Inhibition of human COLO-680N cell growth in a cell viability assay.

A2780 = type: functional, cell-based, Homo sapiens; conditions: Homo sapiens, A2780;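 also: growth inhibition of A2780 cells, read out with a cell viability assay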
Description: SANGER: Inhibition of human A2780 cell growth in a cell viability assay.

MDA-MB-231 = type: functional, cell-based, Homo sapiens; conditions: Homo sapiens, MDA-MB-231
Description: SANGER: Inhibition of human MDA-MB-231 cell growth in a cell viability assay.

HEC-1 = type: functional, cell-based, Homo sapiens; conditions: Homo sapiens, HEC-1;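 also: growth inhibition of the cell line, read out with a cell viability assay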
Description: SANGER: Inhibition of human HEC-1 cell growth in a cell viability assay.

MSTO-211H = type: functional, cell-based, Homo sapiens; conditions: Homo sapiens, MSTO-211H
Description: SANGER: Inhibition of human MSTO-211H cell growth in a cell viability assay.

CAL-72 = type: functional, cell-based, Homo sapiens; conditions: Homo sapiens, CAL-72;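 also: cell viability assay measuring inhibition of proliferation in the CAL-72 cell line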
Description: SANGER: Inhibition of human CAL-72 cell growth in a cell viability assay.

Measured: IC50

C=CCc1cccc(/C=N/NC(=O)CN2CCN(Cc3ccccc3)CC2)c1O [PAC-1]
2.54 µM: HOP-62
2.09 µM: BXPC-3
1.12 µM: LCLC-103H cell line
1.44 µM: CTB-1
> 2.56 µM: all other assays above

CC(=O)O[C@@H]1[C@@H](OC(C)=O)[C@@H](O)[C@H](Oc2c(-c3ccc(O)cc3)oc3cc(O)cc(O)c3c2=O)O[C@H]1C
5.65 µM: HCC2157
3.89 µM: CAL-72
2.78 µM: HuO-3N1
7.32 µM: CTB-1
> 10 µM: all other assays above

CCC1=C[C@@H]2CN(C1)Cc1c([nH]c3ccccc13)[C@@](C(=O)OC)(c1cc3c(cc1OC)N(C)[C@H]1[C@@](O)(C(=O)OC)[C@H](OC(C)=O)[C@]4(CC)C=CCN5CC[C@]31[C@@H]54)C2 [VINORELBINE]
0.0469 µM: PANC-08-13
0.0142 µM: CAPAN-1
0.00193 µM: HOP-62
0.00352 µM: Panc1005
0.013 µM: HuO-3N1
0.0188 µM: HCC2157
0.0374 µM: MDA-MB-231
0.00638 µM: A2780
0.0163 µM: SF-268
0.0116 µM: NCI-H2170
0.0056 µM: MFH-ino
0.0335 µM: AM-38
0.019 µM: NOMO-1
0.00362 µM: BFTC-905 | NCI-H2030
0.0198 µM: CTB-1
0.0129 µM: NCI-H2228
0.00911 µM: KM-H2
0.00974 µM: KYSE-450
0.00819 µM: AU565
0.00304 µM: KYSE-150 cell line
0.0533 µM: COLO-680N
0.00175 µM: OVCAR-4
0.0413 µM: NOS-1
0.00785 µM: H4
0.00337 µM: RT-112
0.00143 µM: LCLC-103H cell line
0.00487 µM: DSH1
0.0192 µM: NCI-H1793
0.0039 µM: BXPC-3
0.0281 µM: ES3
0.0238 µM: KYSE-140
0.0066 µM: OVCAR-8
0.0058 µM: SW48
0.00718 µM: SK-MEL-2
0.0227 µM: HEC-1
> 0.064 µM: all other assays above
